The assay has as its target T1, Solute carrier family 22 member 12 (Homo sapiens, UniProt Q96S37).
T1 sequence (Q96S37 whole entry): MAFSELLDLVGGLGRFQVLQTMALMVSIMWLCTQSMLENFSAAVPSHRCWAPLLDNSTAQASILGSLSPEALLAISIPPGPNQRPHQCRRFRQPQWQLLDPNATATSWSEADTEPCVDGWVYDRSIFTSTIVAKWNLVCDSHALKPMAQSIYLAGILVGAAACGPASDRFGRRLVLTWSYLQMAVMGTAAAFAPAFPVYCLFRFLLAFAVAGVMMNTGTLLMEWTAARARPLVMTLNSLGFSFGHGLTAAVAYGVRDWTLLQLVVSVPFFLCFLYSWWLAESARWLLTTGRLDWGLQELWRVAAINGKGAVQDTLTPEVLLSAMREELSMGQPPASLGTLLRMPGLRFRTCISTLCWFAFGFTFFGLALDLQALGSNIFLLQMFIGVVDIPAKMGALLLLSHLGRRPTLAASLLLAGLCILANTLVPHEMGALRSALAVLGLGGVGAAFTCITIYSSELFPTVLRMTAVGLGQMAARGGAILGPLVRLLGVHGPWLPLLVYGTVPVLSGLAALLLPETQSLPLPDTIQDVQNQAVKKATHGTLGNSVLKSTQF
Nature of the assay: hURAT1 Inhibition Assay: Human embryonic kidney cells (HEK293) was incubated in DMEM tissue culture medium, at 37° C., under 5% CO2 and 95% air atmosphere. TransIT-293 transfection agent (MIRUS BIO, Cat. No. MIR2706) and model URAT1 were used to construct transfected HEK293 cells. Transfected HEK293/hURAT1 cells were used to the test for 14C-uric acid transport activity. HEK293/hURAT1 cells were seeded in a 96-well plate (BD, Cat. No. 356461) fully coating with poly-D-lysine at a density of 6×10^4 cells per well. Cells were incubated at 37° C. for at least 12 hrs in the calorstat, and then washed with pre-heated washing buffer (125 mM sodium gluconate, 10 mM HEPES pH=7.4) at an amount of 200 μL per well to wash out the culture medium. The uric acid [8-14C] (ARC, Cat. No. ARC0513-250UCI) containing or not containing the compound was added to 50 μL HBSS buffer which was free of chloric ion each well (HBSS buffer: 125 mM sodium gluconate, 4.8 mM potassium gluconate, 1.3 mM calcium gluconate, 1.2 mM potassium dihydrogen phosphate, 1.2 mM magnesium sulfate, 5.6 mM glucose, 25 mM HEPES pH=7.4) to make the specific concentration of the uric acid 1 μCi per well. The incubating solution was removed after 10 mins incubation, followed by adding 100 μL cold washing buffer, after washing with this buffer for 3 times, the buffer was completely removed from the well.
By IC50 is commonly meant the point on the concentration scale where inhibition reaches its midpoint. With `C[C@@H](CC(=O)O)c1cc2cncc(-c3ccc(C#N)c4ccccc34)c2s1`, the IC50 was determined as 10 nM.
For `C[C@H](Oc1ccc2cncc(-c3ccc(C#N)cc3)c2c1)C(=O)O`, the half-maximal inhibitory concentration (IC50) was 2690 nM.
Next, `C[C@@H](CC(=O)O)c1cc2cncc(-c3ccc(C#N)cc3)c2s1`: 1860 nM.
Turning to `C[C@H](CC(=O)O)c1cc2cncc(-c3ccc(C#N)c4ccccc34)c2s1`, the IC50 stood at 580 nM.
With `C[C@@H](Oc1ccc2cncc(-c3ccc(C#N)cc3)c2c1)C(=O)O`, the IC50 came out at 5520 nM.
Regarding `C[C@H](CC(=O)O)c1cc2cncc(-c3ccc(C#N)cc3)c2s1`, the concentration for half-maximal inhibition (IC50) is 38 nM.
With `C[C@@H](CC(=O)O)c1cc2c(-c3ccc(C#N)c4ccccc34)cncc2s1`, the half-maximal inhibitory concentration (IC50) is 37 nM.
For `CC(C)(Sc1ccc2cncc(-c3ccc(C#N)c4ccccc34)c2c1)C(=O)O`, the IC50 was found to be 8 nM.
In the case of `C[C@H](CC(=O)O)c1cc2c(-c3ccc(C#N)c4ccccc34)cncc2s1`, the IC50 was 11 nM.
